The source made the active and inactive calls. No cut-off for these calls is given here.
Experiments:
[1] = Toxicity in wild type zebrafish embryos assessed as dead embryo at 25 ug/ml treated for 96 hrs post fertilization starting from 6 hrs post fertilization by inverted microscopic analysis relative to control; assay type: organism-based, Danio rerio; conditions: in vivo, read-out: Activity
Melanocyte [2] = assay: Cytotoxicity against wild type zebrafish embryo melanocytes assessed as punctate cells at 12.5 ug/ml treated for 72 hrs post fertilization starting from 6 to 24 hrs post fertilization; assay type: cell-based, Danio rerio
Melanocyte [3] = assay: Cytotoxicity against wild type zebrafish embryo melanocytes assessed as small and rounded cells at 12.5 ug/ml treated for 72 hrs post fertilization starting from 6 to 24 hrs post fertilization; assay type: cell-based, Danio rerio
Melanocyte [4] = assay: Anti-melanogenic activity in wild type zebrafish embryo melanocytes assessed as decrease in pigmentation at 2.5 mg/ml treated for 72 hrs post fertilization starting from 6 to 24 hrs post fertilization; assay type: functional, cell-based; conditions: Danio rerio
Melanocyte [5] = assay: Cytotoxicity against wild type zebrafish embryo melanocytes assessed as change in morphology; assay type: cell-based, Danio rerio
Melanocyte [6] = assay: Cytotoxicity against wild type zebrafish embryo melanocytes assessed as change in morphology at 2.5 mg/ml treated for 72 hrs post fertilization starting from 6 to 24 hrs post fertilization; assay type: cell-based, Danio rerio
Melanocyte [7] = assay: Cytotoxicity against wild type zebrafish embryo melanocytes assessed as number of melanocyte at 2.5 mg/ml treated for 72 hrs post fertilization starting from 6 to 24 hrs post fertilization; assay type: cell-based, Danio rerio
Danio rerio [8] = organism: Danio rerio; assay: Toxicity in wild type zebrafish embryos assessed as teratogenic embryo at 25 ug/ml treated for 96 hrs post fertilization starting from 6 hrs post fertilization by inverted microscopic analysis relative to control; assay type: organism-based; conditions: in vivo
Danio rerio [9] = organism: Danio rerio; assay: Toxicity in wild type zebrafish embryos assessed as normal embryo at 25 ug/ml treated for 96 hrs post fertilization starting from 6 hrs post fertilization by inverted microscopic analysis relative to control; assay type: organism-based; conditions: in vivo
Danio rerio [10] = organism: Danio rerio; assay: Toxicity in wild type zebrafish embryos assessed as eyes at 25 ug/ml treated for 96 hrs post fertilization starting from 6 hrs post fertilization by inverted microscopic analysis relative to control; assay type: organism-based; conditions: in vivo
Danio rerio [11] = organism: Danio rerio; assay: Toxicity in wild type zebrafish embryos assessed as heart beat at 25 ug/ml treated for 96 hrs post fertilization starting from 6 hrs post fertilization by inverted microscopic analysis relative to control; assay type: organism-based; conditions: in vivo
Danio rerio [12] = organism: Danio rerio; assay: Toxicity in wild type zebrafish embryos assessed as skeletal deformities at 25 ug/ml treated for 96 hrs post fertilization starting from 6 hrs post fertilization by inverted microscopic analysis relative to control; assay type: organism-based; conditions: in vivo
[13] = Toxicity in wild type zebrafish embryos assessed as dead embryo at 50 ug/ml treated for 96 hrs post fertilization starting from 6 hrs post fertilization by inverted microscopic analysis relative to control; assay type: organism-based, Danio rerio; conditions: in vivo, read-out: Activity
[14] = Toxicity in wild type zebrafish embryos assessed as dead embryo at 20 ug/ml treated for 96 hrs post fertilization starting from 6 hrs post fertilization by inverted microscopic analysis relative to control; assay type: organism-based, Danio rerio; conditions: in vivo, read-out: Activity
[15] = Toxicity in wild type zebrafish embryos assessed as dead embryo at 10 ug/ml treated for 96 hrs post fertilization starting from 6 hrs post fertilization by inverted microscopic analysis relative to control; assay type: organism-based, Danio rerio; conditions: in vivo, read-out: Activity
[16] = Toxicity in wild type zebrafish embryos assessed as dead embryo at 5 ug/ml treated for 96 hrs post fertilization starting from 6 hrs post fertilization by inverted microscopic analysis relative to control; assay type: organism-based, Danio rerio; conditions: in vivo, read-out: Activity
Danio rerio [17] = organism: Danio rerio; assay: Toxicity in wild type zebrafish embryos assessed as teratogenic embryo at 50 ug/ml treated for 96 hrs post fertilization starting from 6 hrs post fertilization by inverted microscopic analysis relative to control; assay type: organism-based; conditions: in vivo
Danio rerio [18] = organism: Danio rerio; assay: Toxicity in wild type zebrafish embryos assessed as teratogenic embryo at 20 ug/ml treated for 96 hrs post fertilization starting from 6 hrs post fertilization by inverted microscopic analysis relative to control; assay type: organism-based; conditions: in vivo
Danio rerio [19] = organism: Danio rerio; assay: Toxicity in wild type zebrafish embryos assessed as teratogenic embryo at 10 ug/ml treated for 96 hrs post fertilization starting from 6 hrs post fertilization by inverted microscopic analysis relative to control; assay type: organism-based; conditions: in vivo
Danio rerio [20] = organism: Danio rerio; assay: Toxicity in wild type zebrafish embryos assessed as normal embryo at 20 ug/ml treated for 96 hrs post fertilization starting from 6 hrs post fertilization by inverted microscopic analysis relative to control; assay type: organism-based; conditions: in vivo
Danio rerio [21] = organism: Danio rerio; assay: Toxicity in wild type zebrafish embryos assessed as normal embryo at 5 ug/ml treated for 96 hrs post fertilization starting from 6 hrs post fertilization by inverted microscopic analysis relative to control; assay type: organism-based; conditions: in vivo
Danio rerio [22] = organism: Danio rerio; assay: Toxicity in wild type zebrafish embryos assessed as growth retardation at 20 ug/ml treated for 96 hrs post fertilization starting from 6 hrs post fertilization by inverted microscopic analysis relative to control; assay type: organism-based; conditions: in vivo
Danio rerio [23] = organism: Danio rerio; assay: Toxicity in wild type zebrafish embryos assessed as notochord at 10 ug/ml treated for 96 hrs post fertilization starting from 6 hrs post fertilization by inverted microscopic analysis relative to control; assay type: organism-based; conditions: in vivo
Danio rerio [24] = organism: Danio rerio; assay: Toxicity in wild type zebrafish embryos assessed as notochord at 5 ug/ml treated for 96 hrs post fertilization starting from 6 hrs post fertilization by inverted microscopic analysis relative to control; assay type: organism-based; conditions: in vivo
Danio rerio [25] = organism: Danio rerio; assay: Toxicity in wild type zebrafish embryos assessed as eyes at 10 ug/ml treated for 96 hrs post fertilization starting from 6 hrs post fertilization by inverted microscopic analysis relative to control; assay type: organism-based; conditions: in vivo
Danio rerio [26] = organism: Danio rerio; assay: Toxicity in wild type zebrafish embryos assessed as eyes at 5 ug/ml treated for 96 hrs post fertilization starting from 6 hrs post fertilization by inverted microscopic analysis relative to control; assay type: organism-based; conditions: in vivo
Danio rerio [27] = organism: Danio rerio; assay: Toxicity in wild type zebrafish embryos assessed as otoliths at 10 ug/ml treated for 96 hrs post fertilization starting from 6 hrs post fertilization by inverted microscopic analysis relative to control; assay type: organism-based; conditions: in vivo
Danio rerio [28] = assay: Toxicity in wild type zebrafish embryos assessed as pericardial edema at 10 ug/ml treated for 96 hrs post fertilization starting from 6 hrs post fertilization by inverted microscopic analysis relative to control; assay type: organism-based; conditions: in vivo
Danio rerio [29] = assay: Toxicity in wild type zebrafish embryos assessed as pericardial edema at 5 ug/ml treated for 96 hrs post fertilization starting from 6 hrs post fertilization by inverted microscopic analysis relative to control; assay type: organism-based; conditions: in vivo
Danio rerio [30] = assay: Toxicity in wild type zebrafish embryos assessed as yolk edema at 20 ug/ml treated for 96 hrs post fertilization starting from 6 hrs post fertilization by inverted microscopic analysis relative to control; assay type: organism-based; conditions: in vivo
Danio rerio [31] = organism: Danio rerio; assay: Toxicity in wild type zebrafish embryos assessed as heart beat at 20 ug/ml treated for 96 hrs post fertilization starting from 6 hrs post fertilization by inverted microscopic analysis relative to control; assay type: organism-based; conditions: in vivo
Danio rerio [32] = organism: Danio rerio; assay: Toxicity in wild type zebrafish embryos assessed as blood circulation at 10 ug/ml treated for 96 hrs post fertilization starting from 6 hrs post fertilization by inverted microscopic analysis relative to control; assay type: organism-based; conditions: in vivo
Danio rerio [33] = organism: Danio rerio; assay: Toxicity in wild type zebrafish embryos assessed as blood circulation at 5 ug/ml treated for 96 hrs post fertilization starting from 6 hrs post fertilization by inverted microscopic analysis relative to control; assay type: organism-based; conditions: in vivo
Danio rerio [34] = organism: Danio rerio; assay: Toxicity in wild type zebrafish embryos assessed as unhatched embryo at 20 ug/ml treated for 96 hrs post fertilization starting from 6 hrs post fertilization by inverted microscopic analysis relative to control; assay type: organism-based; conditions: in vivo
Danio rerio [35] = organism: Danio rerio; assay: Toxicity in wild type zebrafish embryos assessed as unhatched embryo at 10 ug/ml treated for 96 hrs post fertilization starting from 6 hrs post fertilization by inverted microscopic analysis relative to control; assay type: organism-based; conditions: in vivo
Danio rerio [36] = organism: Danio rerio; assay: Toxicity in wild type zebrafish embryos assessed as head malformation at 10 ug/ml treated for 96 hrs post fertilization starting from 6 hrs post fertilization by inverted microscopic analysis relative to control; assay type: organism-based; conditions: in vivo
Danio rerio [37] = organism: Danio rerio; assay: Toxicity in wild type zebrafish embryos assessed as head malformation at 5 ug/ml treated for 96 hrs post fertilization starting from 6 hrs post fertilization by inverted microscopic analysis relative to control; assay type: organism-based; conditions: in vivo
Danio rerio [38] = organism: Danio rerio; assay: Toxicity in wild type zebrafish embryos assessed as skeletal deformities at 5 ug/ml treated for 96 hrs post fertilization starting from 6 hrs post fertilization by inverted microscopic analysis relative to control; assay type: organism-based; conditions: in vivo

Structure (SMILES) | mortality at 25 ug/ml [1] [%] | Activity (Melanocyte [2]) | Activity (Melanocyte [3]) | Activity (Melanocyte [4]) | Activity (Melanocyte [5]) | Activity (Melanocyte [6]) | Activity (Melanocyte [7]) | Activity (Danio rerio [8]) [%] | Activity (Danio rerio [9]) [%] | Activity (Danio rerio [10]) [%] | Activity (Danio rerio [11]) [%] | Activity (Danio rerio [12]) [%] | mortality at 50 ug/ml [13] [%] | mortality at 20 ug/ml [14] [%] | mortality at 10 ug/ml [15] [%] | mortality at 5 ug/ml [16] [%] | Activity (Danio rerio [17]) [%] | Activity (Danio rerio [18]) [%] | Activity (Danio rerio [19]) [%] | Activity (Danio rerio [20]) [%] | further results
O=c1cc(CO)occ1O [KOJIC ACID] | 0 | Non-Toxic | Non-Toxic | Active | Dose-dependent effect and Tde | Non-Toxic | Non-Toxic | 0 | 100 | 0 | 0 | 0 |  |  |  |  |  |  |  |  | 
Oc1ccc(O)cc1 [HYDROQUINONE] | 93.3 | Non-Toxic | Non-Toxic |  | Dose-dependent effect and Tde |  |  | 6.7 | 0 | 100 | 100 |  | 100 | 70 | 63.3 | 0 | 0 | 30 | 36.7 | 0 | Activity (Danio rerio [21]): 0%; Activity (Danio rerio [22]): 100%; Activity (Danio rerio [23]): 0%; Activity (Danio rerio [24]): 0%; Activity (Danio rerio [25]): 80%; Activity (Danio rerio [26]): 0%; Activity (Danio rerio [27]): 80%; Activity (Danio rerio [28]): 100%; Activity (Danio rerio [29]): 71.7%; Activity (Danio rerio [30]): 100%; Activity (Danio rerio [31]): 100%; Activity (Danio rerio [32]): 90%; Activity (Danio rerio [33]): 0%; Activity (Danio rerio [34]): 100%; Activity (Danio rerio [35]): 0%; Activity (Danio rerio [36]): 100%; Activity (Danio rerio [37]): 0%; Activity (Danio rerio [38]): 0%
O=c1cc(-c2ccccc2)c2c(O)cc(O)cc2o1 | 0 | Non-Toxic | Non-Toxic | Active | Dose-dependent effect and Tde | Non-Toxic | Non-Toxic | 0 | 100 | 0 | 0 | 0 | 0 | 0 | 0 | 0 | 25 | 0 | 0 | 100 | Activity (Danio rerio [21]): 100%; Activity (Danio rerio [22]): 0%; Activity (Danio rerio [23]): 0%; Activity (Danio rerio [24]): 0%; Activity (Danio rerio [25]): 0%; Activity (Danio rerio [26]): 0%; Activity (Danio rerio [27]): 0%; Activity (Danio rerio [28]): 0%; Activity (Danio rerio [29]): 0%; Activity (Danio rerio [30]): 0%; Activity (Danio rerio [31]): 0%; Activity (Danio rerio [32]): 0%; Activity (Danio rerio [33]): 0%; Activity (Danio rerio [34]): 0%; Activity (Danio rerio [35]): 0%; Activity (Danio rerio [36]): 0%; Activity (Danio rerio [37]): 0%; Activity (Danio rerio [38]): 0%
O=c1cc(-c2ccccc2)c2ccc(O)cc2o1 | 0 | Non-Toxic | Non-Toxic | Active | Dose-dependent effect and Tde | Non-Toxic | Non-Toxic | 0 | 100 | 0 | 0 | 0 | 0 | 0 | 0 | 0 | 0 | 0 | 0 | 100 | Activity (Danio rerio [21]): 100%; Activity (Danio rerio [22]): 0%; Activity (Danio rerio [23]): 0%; Activity (Danio rerio [24]): 0%; Activity (Danio rerio [25]): 0%; Activity (Danio rerio [26]): 0%; Activity (Danio rerio [27]): 0%; Activity (Danio rerio [28]): 0%; Activity (Danio rerio [29]): 0%; Activity (Danio rerio [30]): 0%; Activity (Danio rerio [31]): 0%; Activity (Danio rerio [32]): 0%; Activity (Danio rerio [33]): 0%; Activity (Danio rerio [34]): 0%; Activity (Danio rerio [35]): 0%; Activity (Danio rerio [36]): 0%; Activity (Danio rerio [37]): 0%; Activity (Danio rerio [38]): 0%

Reference: ChEMBL document CHEMBL4177616, “Potent anti-melanogenic activity and favorable toxicity profile of selected 4-phenyl hydroxycoumarins in the zebrafish model and the computational molecular modeling studies” (Bioorg Med Chem, 2017)
